Assay results reported in ChEMBL document CHEMBL2434836, “Studies on substituted benzo[h]quinazolines, benzo[g]indazoles, pyrazoles, 2,6-diarylpyridines as anti-tubercular agents” (Bioorg Med Chem Lett, 2013).

system: not listed separately; experiment: Safety index, ratio of CC50 for human THP1 cells to MIC for Mycobacterium tuberculosis H37Rv; assay type: toxicity, cell-based, THP-1

SMILES	selectivity ratio
N#CCc1cc(-c2ccc(Br)cc2)[nH]n1	8

system: not listed separately; experiment: Cytotoxicity against human THP1 cells after 24 hrs by MTT assay; assay type: cell-based, THP-1

SMILES	CC50 at 24 h [µM]
COc1ccc(-c2cc(/C(C#N)=C/N(C)C)n[nH]2)cc1	> 200
CCOC(=O)CCCOc1ccc(-c2nc(N)nc3c2CCc2cc(OC)ccc2-3)cc1	200
COc1ccc2c(c1)CCc1c(-c3ccc(OCCN4CCCCC4)cc3)nc(N)nc1-2	200
COc1ccc2c(c1)CCc1c(-c3ccc(OCCN(C)C)cc3)nc(N)nc1-2	200
N#CCc1cc(-c2ccc(Br)cc2)[nH]n1	> 200

system: Mycobacterium tuberculosis; experiment: Antitubercular activity against Mycobacterium tuberculosis H37Rv assessed as growth inhibition by micro plate alamar blue assay; assay type: functional

SMILES	MIC
CC1=NN(C(=O)c2cc(-c3ccc(Cl)cc3)n[nH]2)C(=O)/C1=N/Nc1cccc(F)c1	0.35 µg/mL
Cc1ccc(-c2cc(N3CCOCC3)c(C#N)c(-c3ccccc3)n2)cc1	> 200 µM
COc1ccc2c(c1)CCC1C2=NN(C(C)=O)C1c1ccc(O)cc1 (configuration not stated)	> 200 µM
CCOC(=O)CCCCCOc1ccc(-c2nc(N)nc3c2CCc2cc(OC)ccc2-3)cc1	200 µM
COc1ccc(-c2cc(/C(C#N)=C/N(C)C)n[nH]2)cc1	100 µM
COc1ccc2c(c1)CCC1C2=NN(C(C)=O)C1c1ccc(OCCN2CCCC2)cc1 (configuration not stated)	200 µM
N#Cc1c(N2CCCCC2)cc(-c2ccccc2)nc1-c1ccccc1	> 200 µM
O=c1nc2ccccn2cc1-c1cc(-c2ccccc2)[nH]n1	> 200 µM
CCOC(=O)CCCOc1ccc(-c2nc(N)nc3c2CCc2cc(OC)ccc2-3)cc1	50 µM
CCOC(=O)CCCCOc1ccc(-c2nc(N)nc3c2CCc2cc(OC)ccc2-3)cc1	200 µM
COc1ccc2c(c1)CCc1c(-c3ccc(O)cc3)nc(N)nc1-2	> 200 µM
COc1ccc2c(c1)CCC1C2=NN(C(C)=O)C1c1ccc(OCCN(C)C)cc1 (configuration not stated)	200 µM
N#CCc1cc(-c2ccc(Cl)cc2)[nH]n1	> 200 µM
CCSc1nc(Cl)c(C#N)c(-c2ccc(F)cc2F)n1	0.78 µg/mL
COc1ccc2c(c1)CCc1c(-c3ccc(OCCCCC(=O)NN)cc3)nc(N)nc1-2	200 µM
CCOC(=O)/C(C#N)=C(\CC(=O)c1ccccc1)N1CCCCC1	> 200 µM
COc1ccc2c(c1)CCc1c(-c3ccc(OCCN4CCCC4)cc3)nc(N)nc1-2	200 µM
CN[C@@H]1[C@H](O[C@H]2[C@H](O[C@H]3[C@H](O)[C@@H](O)[C@H](N=C(N)N)[C@@H](O)[C@@H]3N=C(N)N)O[C@@H](C)[C@]2(O)C=O)O[C@@H](CO)[C@H](O)[C@H]1O [STREPTOMYCIN]	6 µM
N#Cc1c(N2CCCCC2)cc(-c2ccc(Cl)cc2)nc1-c1ccccc1	> 200 µM
CN(C)/C=C(\C#N)c1cc(-c2ccccc2)[nH]n1	200 µM
CN(C)/C=C(\C#N)c1cc(-c2ccc(Br)cc2)[nH]n1	> 200 µM

SMILES	MIC
NNC(=O)c1ccncc1 [ISONIAZID]	0.2 µM
COc1ccc2c(c1)CCc1c(-c3ccc(OCCCCCC(=O)NN)cc3)nc(N)nc1-2	200 µM
COc1ccc2c(c1)CCc1c(-c3ccc(OCCN4CCCCC4)cc3)nc(N)nc1-2	50 µM
CCN(CC)CCOc1ccc(C2C3CCc4cc(OC)ccc4C3=NN2C(C)=O)cc1 (configuration not stated)	200 µM
NC(=O)c1c(N2CCCCC2)cc(-c2ccc(Br)cc2)nc1-c1ccccc1	> 200 µM
CO[C@H]1/C=C/O[C@@]2(C)Oc3c(C)c(O)c4c(O)c(c(/C=N/N5CCN(C)CC5)c(O)c4c3C2=O)NC(=O)/C(C)=C\C=C\[C@H](C)[C@H](O)[C@@H](C)[C@@H](O)[C@@H](C)[C@H](OC(C)=O)[C@@H]1C [RIFAMPIN]	2 µM
COc1ccc(-c2cc(N3CCCCC3)c(C#N)c(-c3ccccc3)n2)cc1	> 200 µM
Cc1ccc(-c2cc(/C(C#N)=C/N(C)C)n[nH]2)cc1	> 200 µM
COc1ccc2c(c1)CCc1c(-c3ccc(OCCN(C)C)cc3)nc(N)nc1-2	100 µM
COc1ccc(-c2cc(CC#N)n[nH]2)cc1	200 µM
N#CCc1cc(-c2ccc(Br)cc2)[nH]n1	25 µM
N#Cc1c(N2CCCCC2)cc(-c2ccc(Br)cc2)nc1-c1ccccc1	> 200 µM
COc1ccc2c(c1)CCc1c(-c3ccc(OCCCC(=O)NN)cc3)nc(N)nc1-2	200 µM
CN(C)/C=C(\C#N)c1cc(-c2ccc(Cl)cc2)[nH]n1	> 200 µM
Cc1ccc(-c2cc(CC#N)n[nH]2)cc1	> 200 µM
COc1ccc2c(c1)CCC1C2=NN(C(C)=O)C1c1ccc(OCCN2CCCCC2)cc1 (configuration not stated)	> 200 µM
Cc1ccc(-c2cc(N3CCCCC3)c(C#N)c(-c3ccccc3)n2)cc1	> 200 µM
COc1ccc2c(c1)CCc1c(-c3ccc(OC(C)CN(C)C)cc3)nc(N)nc1-2 (configuration not stated)	200 µM
COc1ccc(-c2cc3ccnc(-c4ccccc4)n3n2)cc1	> 200 µM
COc1ccc2c(c1)CCC1C2=NN(C(C)=O)C1c1ccc(OC(C)CN(C)C)cc1 (configuration not stated)	200 µM
